Reference: PubChem BioAssay (NCI)
Several values for one entry are separate records, joined by “and”; a condition that tells them apart may be missing. Equal entries are not always repeated.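 The compound was tested at five concentrations on cells cultured in 96-well plates, with a 48-hour exposure period. GI50: concentration for 50% inhibition of growth. The concentration for full growth arrest is given as TGI.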

How the values were obtained:
Test in all cases: inhibition of tumour cell growth, NCI panel, 48 h
PC-3 prostate = system: PC-3 prostate
K-562 leukemia = system: K-562 leukemia
MCF7 breast = system: MCF7 breast
MOLT-4 leukemia = system: MOLT-4 leukemia
CAKI-1 renal = system: CAKI-1 renal
HOP-62 NSCLC = system: HOP-62 NSCLC
MDA-MB-435 = system: MDA-MB-435
SN12C renal = system: SN12C renal
ACHN renal = system: ACHN renal
RXF 393 renal = system: RXF 393 renal

Row | SMILES | GI50 (PC-3 prostate) | TGI (PC-3 prostate) | GI50 (K-562 leukemia) | TGI (K-562 leukemia) | GI50 (MCF7 breast) | TGI (MCF7 breast) | GI50 (MOLT-4 leukemia) | TGI (MOLT-4 leukemia) | GI50 (CAKI-1 renal) | TGI (CAKI-1 renal) | GI50 (HOP-62 NSCLC) | TGI (HOP-62 NSCLC) | GI50 (MDA-MB-435) | TGI (MDA-MB-435) | GI50 (SN12C renal) | TGI (SN12C renal) | GI50 (ACHN renal) | TGI (ACHN renal) | GI50 (RXF 393 renal) | TGI (RXF 393 renal)
1 | O=C(Nc1cc(F)c(F)cc1C(=O)O)c1ccc(-n2ccnc2)nn1 | > 100 µM | > 100 µM | 80.5 µM | > 100 µM | > 100 µM | > 100 µM | > 100 µM | > 100 µM | > 100 µM | > 100 µM | > 100 µM | > 100 µM | > 100 µM | > 100 µM | > 100 µM | > 100 µM | > 100 µM | > 100 µM | 19.6 µM | > 100 µM
2 | Fc1ccc(-c2nn3ccccc3c2-c2ccncc2)cc1 | > 25 µM | > 25 µM | > 25 µM | > 25 µM | > 23.1 µM | > 25 µM | > 25 µM | > 25 µM | 11.8 µM | > 25 µM | > 25 µM | > 25 µM | > 25 µM | > 25 µM | > 25 µM | > 25 µM | 12.1 µM | > 25 µM | > 25 µM | > 25 µM
3 | c1ccc(Oc2ccc(Nc3ncc(-c4ccccc4)o3)cc2)cc1 | > 25 µM | > 25 µM | > 25 µM | > 25 µM | > 25 µM | > 25 µM | > 25 µM | > 25 µM | > 25 µM | > 25 µM | > 25 µM | > 25 µM | > 25 µM | > 25 µM | > 25 µM | > 25 µM | > 25 µM | > 25 µM | > 25 µM | > 25 µM
4 | CS(=O)(=O)c1cccc(Nc2ncc3cc(-c4ccccc4Cl)ccc3n2)c1 | 1.79 µM | > 33.3 µM | 0.165 µM | > 33.3 µM | 1.37 µM | > 33.3 µM | 1.42 µM | 14.6 µM | 0.859 µM | 9.57 µM | 1.3 µM | > 33.3 µM | 0.657 µM | 1.9 µM | 1.12 µM | > 33.3 µM | 1.01 µM | > 33.3 µM | 1.05 µM | 6.24 µM
5 | Nc1ncc(-c2ccc3ncnc(N4CCc5ccc(Cl)cc54)c3c2)cc1C(F)(F)F | 0.84 µM | 16 µM | 3.98 µM | > 100 µM | 0.375 µM | 14.9 µM | 1.63 µM | > 100 µM | 0.457 µM | 5.56 µM | 1.74 µM | 13.2 µM | 1.68 µM | 13.5 µM | 0.465 µM | 15.9 µM | 0.569 µM | 13.2 µM | 0.181 µM | 0.864 µM
6 | O=C(Nc1ccccc1)OC1OC(COC(=O)c2ccccc2)C(OC(=O)c2ccccc2)C1OS(=O)(=O)c1ccc([N+](=O)[O-])cc1 (stereo not given) | – | > 100 µM | – | > 100 µM | – | > 100 µM | – | > 100 µM | – | > 100 µM | – | > 100 µM | – | > 100 µM | – | > 100 µM | – | > 100 µM | – | > 100 µM
7 | COc1ccccc1/C=C\C(=O)C1COCN1 (stereo not given) | – | 29.1 µM | – | > 100 µM | – | 36.8 µM | – | > 100 µM | – | 42.2 µM | – | 57.4 µM | – | 26.4 µM | – | 35.1 µM | – | 26.3 µM | – | 81.8 µM
8 | CCN1C(=O)N(CC)C2C1NN=c1s/c(=C3\C(=O)N(C4CCCC4)c4ccccc43)c(=O)n12 (stereo not given) | 1.15 µM | > 100 µM | 0.37 µM | > 100 µM | 0.382 µM | > 100 µM | 3.42 µM | > 100 µM | 0.519 µM | > 100 µM | 1.54 µM | 14.4 µM | 0.242 µM | 0.661 µM | 2.76 µM | > 100 µM | 1.27 µM | > 100 µM | 0.603 µM | 3.2 µM
9 | CN(C)Cc1ccc(NC(=O)c2cncc(C#Cc3cnc(N)c4ncccc34)c2)cc1F | 1.74 µM | 3.34 µM | 0.0566 µM | 1.85 µM | 1.66 µM | 3.45 µM | 2.21 µM | 5.3 µM | 15.8 µM | 32.3 µM | 13.4 µM | 42.8 µM | 1.64 µM | 3.14 µM | 1.92 µM | 3.56 µM | 3.28 µM | 11.4 µM | – | –
10 | COc1cc2c3c(n(CCCNCCCNCCN)c(=O)c2cc1OC)-c1cc2c(cc1C3=O)OCO2 | – | – | – | – | 32.5 µM | > 100 µM | 10.9 µM | > 100 µM | 87.8 µM | > 100 µM | – | – | 38 µM | > 100 µM | 19.8 µM | 64.3 µM | 18.7 µM | 57.1 µM | > 100 µM | > 100 µM
11 | CCCCCCCCCCCCN=C(N)c1ccc(N2CCN(c3ccc(C(N)=NCCCCCCCCCCCC)cc3)CC2)cc1 | 9.02 µM | 20.2 µM | 6.82 µM | > 50 µM | – | – | 4.4 µM | > 50 µM | 32.3 µM | > 50 µM | 6.96 µM | 14.6 µM | 9.4 µM | 19.4 µM | 8.99 µM | 18.7 µM | 20.7 µM | > 50 µM | 9.54 µM | 37.6 µM
12 | COc1cc([N+](=O)[O-])c(S(=O)(=O)O)cc1-n1nc(C(=O)Nc2ccccc2)n[n+]1-c1cc(S(=O)(=O)[O-])c([N+](=O)[O-])cc1OC | – | > 100 µM | – | > 100 µM | – | > 100 µM | – | > 100 µM | – | > 100 µM | – | > 100 µM | – | > 100 µM | – | > 100 µM | – | > 100 µM | – | –
13 | Cc1ccc(N=C2N=C(N3CC(C)OC(C)C3)c3ccccc32)cc1 (stereo not given) | – | – | – | > 100 µM | – | – | – | 47.8 µM | – | 51 µM | – | > 100 µM | – | – | – | > 100 µM | – | > 100 µM | – | 34.4 µM
14 | CCCc1nc(Cl)c(Cl)c(Cl)n1 | – | > 100 µM | – | > 45.9 µM | – | > 78.6 µM | – | 46.9 µM | – | 27.7 µM | – | > 83.4 µM | – | > 62 µM | – | > 31.6 µM | – | – | – | 56.4 µM
15 | CCCCNC(=S)OCCC(C)CCCC(C)C (stereo not given) | – | – | – | > 100 µM | – | – | – | > 100 µM | – | > 100 µM | – | > 100 µM | – | – | – | > 100 µM | – | > 100 µM | – | > 100 µM
16 | CC(C)OC/N=C(/N)NC#N | – | – | – | > 100 µM | – | – | – | > 100 µM | – | > 100 µM | – | > 100 µM | – | – | – | > 100 µM | – | > 100 µM | – | > 100 µM
17 | CCCCCCCCCCCCCCCC(=O)OCCOCCOCCOCCOCCOC(=O)CCCCCCCCCCCCCCC | – | – | – | > 100 µM | – | – | – | > 100 µM | – | > 100 µM | – | > 100 µM | – | – | – | > 100 µM | – | > 100 µM | – | > 100 µM
18 | COc1cc2c(c(OC)c1OC)-c1ccc(SC)c(=O)cc1[C@@H](NC(=O)C(F)(F)F)CC2 | – | > 100 µM | – | > 85.2 µM | – | > 82.2 µM | – | > 27.2 µM | – | 10.3 µM | – | > 100 µM | – | – | – | 16.5 µM | – | > 72.3 µM | – | 1.28 µM
19 | [N-]=[N+]=NCCCn1c2c(c3ccc([N+](=O)[O-])cc3c1=O)C(=O)c1cc(-c3ccccc3)ccc1-2 | > 100 µM | > 100 µM | – | > 100 µM | > 100 µM | > 100 µM | – | – | > 100 µM | > 100 µM | > 100 µM | > 100 µM | > 100 µM | > 100 µM | > 100 µM | > 100 µM | > 100 µM | > 100 µM | > 100 µM | > 100 µM
20 | COC1C=COC2(C)Oc3c(C)c(O)c4c(O)c(c(C5SCCS5)c(O)c4c3C2=O)NC(=O)/C(C)=C\C=CC(C)C(O)C(C)C(O)C(C)C(OC(C)=O)C1C (stereo not given) | – | 20 µM | – | – | – | 24.2 µM | – | 4.43 µM | – | 22.8 µM | – | 46 µM | – | 16.1 µM | – | 10.1 µM | – | 10.7 µM | – | 24.1 µM
21 | CC[C@H](C)[C@H](NC(=O)[C@H]1CCCCN1C)C(=O)N(C)[C@H](C[C@@H](OC(C)=O)c1cccc(C(=O)N[C@@H](Cc2ccccc2)C[C@H](C)C(=O)O)n1)C(C)C | 0.00273 µM and 0.0025 µM | > 25 µM | 0.000539 µM and 0.0025 µM | > 25 µM | 0.000341 µM and 0.0025 µM | > 25 µM | 0.00364 µM and 0.0025 µM | > 25 µM | – | – | 0.00275 µM and 0.0025 µM | > 25 µM | 0.000279 µM and < 0.0025 µM | 0.00152 µM and < 0.0025 µM | 0.00417 µM and 0.0025 µM | > 25 µM | 0.00787 µM and 0.0025 µM | > 25 µM | – | –
22 | COc1ccc(-c2cn(-c3ccc(OC)c(OC)c3)c(=O)[nH]2)cc1 | > 100 µM | > 100 µM | 37.4 µM | > 100 µM | > 100 µM | > 100 µM | 1.72 µM | > 100 µM | > 100 µM | > 100 µM | > 100 µM | > 100 µM | 50.2 µM | > 100 µM | > 100 µM | > 100 µM | > 100 µM | > 100 µM | – | –
23 | N#CC1(C#N)C=CC(=C2OCC3CCCN23)C=C1 (stereo not given) | – | – | – | > 100 µM | – | – | – | > 100 µM | – | > 100 µM | – | > 100 µM | – | – | – | > 100 µM | – | > 100 µM | – | > 100 µM
24 | COCCc1n(Cc2ccc3ccccc3c2)c2ccccc2[n+]1Cc1ccc2ccccc2c1 | 0.412 µM | 1.62 µM | – | – | – | – | – | – | – | – | 1.26 µM | 2.73 µM | 0.41 µM | 1.56 µM | – | – | 1.61 µM | 2.99 µM | – | –
